These results are taken from patent US8114871B2, “3-amido-pyrrolo[3,4-C]pyrazole-5(1H,4H,6H) carbaldehyde derivatives” (Pfizer Inc., priority 2007, dated 2012).

This experiment addresses Protein Kinase C beta 2 (PKCβII) (Homo sapiens, UniProt P05771). Description: PKCβII coupled PK/LDH spectrophotometric kinase assay (decrease of NADH absorbance at 340 nm). Format: biochemical. To be noted: apparent Ki, Morrison fit, 0.1 mM ATP, 30° C., pH 7.4; read-out: PKCb Ki. As for the experimental part: This transfer is coupled to the oxidation of p-NADH through the activities of Pyruvate Kinase (PK) and Lactate Dehydrogenase (LDH).
A typical assay was carried out on a 96-well, clear microtiter plate in a Molecular Devices spectrophotometer for 20 minutes at 30° C. in 0.1 mL of assay buffer containing 50 mM HEPES, pH 7.4, 5 nM PKC, 23 units of pyruvate kinase, 33 units of lactate dehydrogenase, 0.15 mM peptide, 0.1 mM ATP, 1 mM DTT, 4 mM PEP, 8 mM MgCl2, 0.3 mM NADH, 60 mM CaCl2, 10 mg/mL PS, 50 ng/mL PMA, 7.5% DMSO and from about 10,000 nM to 0.169 nM compound inhibitor. Stock solutions of 3-sn-phosphatidyl-L-serine (PS) and phorbol-12-myristate-13-acetate (PMA) were sonicated for 30 seconds just prior to addition to assay buffer and assays were initiated by the addition of 100 μM ATP.
Enzyme turnover values (kcat) were calculated according to […], where [E] is the total enzyme concentration. […] Morrison, J. F., Biochim. Biophys Acta 185: 269-286 (1969).

Protein Kinase C beta 2 (PKCβII), sequence (P05771 1-673 isoform P05771-2): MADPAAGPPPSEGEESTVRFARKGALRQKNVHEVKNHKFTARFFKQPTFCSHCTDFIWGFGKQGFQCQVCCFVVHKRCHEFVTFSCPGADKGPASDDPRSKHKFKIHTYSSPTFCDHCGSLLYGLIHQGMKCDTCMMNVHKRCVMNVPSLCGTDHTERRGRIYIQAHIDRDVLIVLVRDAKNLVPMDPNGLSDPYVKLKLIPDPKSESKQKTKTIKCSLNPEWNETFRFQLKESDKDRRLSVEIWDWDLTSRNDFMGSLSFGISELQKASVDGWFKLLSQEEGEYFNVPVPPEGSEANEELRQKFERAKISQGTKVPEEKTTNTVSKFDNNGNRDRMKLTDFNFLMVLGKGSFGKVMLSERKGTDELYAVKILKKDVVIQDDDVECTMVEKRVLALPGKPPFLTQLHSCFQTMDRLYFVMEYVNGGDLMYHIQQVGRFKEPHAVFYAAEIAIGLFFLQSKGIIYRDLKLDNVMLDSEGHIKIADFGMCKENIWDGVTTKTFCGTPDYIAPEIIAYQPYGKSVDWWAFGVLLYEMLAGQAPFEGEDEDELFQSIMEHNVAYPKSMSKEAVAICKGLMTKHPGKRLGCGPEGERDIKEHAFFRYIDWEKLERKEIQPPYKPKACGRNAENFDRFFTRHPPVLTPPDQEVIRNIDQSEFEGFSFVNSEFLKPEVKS

For the compound `CCOc1cccc(C(=O)Nc2n[nH]c3c2CN(C(=O)N2C[C@@H]4CCCN4C[C@@H]2C)C3(C)C)c1` [Example E5, N-(6,6-dimethyl-5-((3S,8aS)-3-methyl-octahydropyrrolo[1,2-a]pyrazine-2-carbonyl)-1,4,5,6-tetrahydropyrrolo[3,4-c]pyrazol-3-yl)-3-ethoxybenzamide], the Ki is 37.5 nM.
